Data taken from patent US10457676B2, “Capsazepine analogs for the treatment of cancer and other proliferative diseases” (THE BOARD OF REGENTS OF THE UNIVERSITY OF TEXAS SYSTEM, priority 2014, dated 2019).

What was measured:
[1] = test system: SCC4 xenografts; assay: OSCC mouse xenograft model, intra-tumor injection; type: in vivo, athymic nude mice
Method: All studies were approved by the UTHSCSA Institutional Animal Care and Use Committee. Six week-old female athymic nude mice (Harlan, Indianapolis, Ind.) were used in a laminar air-flow cabinet under pathogen-free conditions. They were provided with a 12 h light/dark schedule at controlled temperature and humidity with food and water ad libitum. Mice were acclimated for one week prior to study initiation.
Mice were injected subcutaneously in the right flank with 2×10^6 SCC4 cells in 0.1 mL of sterile PBS. Four weeks post-inoculation, tumors grew to an average volume of 150 mm^3. Mice were stratified into two experimental groups (n=5 per group), which received the following treatments as intra-tumor injections: group A, vehicle control; group B, capsazepine or capsazepine derivative (analog) treatment. Treatments were repeated every other day for a total of 14 days.
Capsazepine and novel capsazepine analogs stock solutions (20 μg/μL, 100% Ethanol) were diluted to 5% Ethanol in sterile saline generating a final concentration of 1 μg/μL. SCC4 xenografts received intra-tumor injections of 40 μg CIDD24 or 40 μg capsazepine every other day (FIG. 4) for two weeks. In a second study SCC4 xenografts were injected with 80 μg CIDD24 or 80 μg CIDD111 every other day for two weeks (FIG. 5). Control xenografts received intra-tumor injections with vehicle control (5% Ethanol in sterile saline). Mice were monitored daily for tumor growth (using digital calipers), cachexia, and weight loss. Body temperature was monitored for 24 h following treatments. Tumor volumes were calculated by the elliptical formula: ½(Length×Width^2) (Jensen, et al., 2008).
Statistical analysis was performed using GraphPad Prism4 (San Diego, Calif.). Experiments were performed in triplicate and results are represented as means±SD except when indicated. Cytotoxicity assays of cell viability were analyzed by one-way ANOVA and Bonferroni's post hoc test (n=4). Statistical analyses of tumor growth were made using analysis of variance with repeated measures with Bonferroni's post hoc test (n=5). A p value less than 0.05 was considered statistically significant.

[2] = test system: HSC3 cells; assay: Cell viability with antioxidant N-acetyl-cysteine (reversal, ROS mechanism); type: cell-based, human; conditions: 10 μM, 24 hours
Method: OSCC cell lines, SCC4, SCC25, and HSC3 were derived from human primary tongue OSCC. SCC4 and SCC25 cells were obtained from ATCC (Rockville, Md.). HSC3 cells were kindly provided by Dr. Brian Schmidt (NYU) (Saghafi, et al., 2011). Breast cancer cells (MDA231), Prostate cancer cells (PC3), and Non-Small Cell Lung Cancer cells (H460) were obtained from ATCC (Rockville, Md.). Cells were maintained in DMEM (Gibco, Carlsbad, Calif.) containing 10% FBS at 37° C. in 5% CO2. Immortalized keratinocytes (OKF6-TERT2; Harvard Medical School Cell Culture Core Collection, Cambridge, Mass.) were used as control epithelial cells.
Cytotoxicity was assessed using the Cell Titer 96® Aqueous Non-Radioactive Cell Proliferation Assay (Promega, Madison, Wis.) according to manufacturer's protocol. Absorbance values of test groups were normalized against controls (n=4).
ROS levels in OSCC cell lines were examined by flow cytometry using 2,7-dichlorodihydrofluorescein diacetate (DCF-DA; Sigma-Aldrich, St. Louis, Mo.). Cells (3×10^5) were plated in 12-well plates and incubated for 30 min with DCF-DA at 37° C. then treated with 30 μM of the appropriate capsazepine derivative or capsazepine using phenol free media with and without 10 mM NAC. Treated cells were incubated for 1 h at 37° C., harvested, washed twice, and analyzed by FACS.

[3] = test system: oral cancer tumors; conditions: direct injection into tumors; cited from earlier work
[4] = SCC4 tumors, 40 μg intra-tumor every other day for two weeks, n=5
[5] = SCC4 tumors, 80 μg every other day for two weeks, p<0.001

Row | SMILES | reduction in tumor growth compared to vehicle control [1, 4] | reduction in tumor growth compared to vehicle control [1, 5] | cell growth inhibition with 10 mM N-acetyl-cysteine added [2] | other results
1 | Oc1cc2c(cc1O)CN(C(=S)NCCc1ccc(Cl)cc1)CC2 [CIDD24, N-[2-(4-chlorophenyl)ethyl]-6,7-dihydroxy-1,2,3,4-tetrahydroisoquinoline-2-carbothioamide] | 80% | significant reduction in tumor growth | – | tumor volume % change, difference between CIDD 24 and capsazepine ([1]; SCC4 xenografts, 40 μg (1 μg/μl), 10 day period, #=p<0.05): statistically significant difference
2 | O=C(NCCc1ccc(Cl)cc1)N1CCc2cc(O)c(O)cc2C1 [CIDD25, N-[2-(4-chlorophenyl)ethyl]-6,7-dihydroxy-1,2,3,4-tetrahydroisoquinoline-2-carboxamide] | 50% | – | – | –
3 | Oc1cc2c(cc1O)C(c1ccccc1)N(C(=S)NCc1ccccc1)CC2 (centres unmarked) [CIDD111, N-benzyl-6,7-dihydroxy-1-phenyl-1,2,3,4-tetrahydroisoquinoline-2-carbothioamide] | – | significant reduction in tumor growth | – | efficacy compared with CIDD24 ([1]; SCC4 tumors, 80 μg every other day for two weeks, no significant difference in potency): slightly more effective than CIDD24
4 | Oc1cc2c(cc1O)C(c1ccccc1)N(C(=S)NCCc1ccc(Cl)cc1)CC2 (centres unmarked) [CIDD 99, N-[2-(4-chlorophenyl)ethyl]-6,7-dihydroxy-1-phenyl-1,2,3,4-tetrahydroisoquinoline-2-carbothioamide] | – | – | reversed | –
5 | Oc1cc2c(cc1O)C(c1ccccc1)N(C(=S)NCCc1ccc(Cl)cc1Cl)CC2 (centres unmarked) [CIDD 118, N-[2-(2,4-dichlorophenyl)ethyl]-6,7-dihydroxy-1-phenyl-1,2,3,4-tetrahydroisoquinoline-2-carbothioamide] | – | – | reversed | –
6 | Oc1cc2c(cc1O)CN(C(=S)NCCc1ccc(Cl)cc1)CCC2 [capsazepine] | ~50% | – | reversed | tumor volume after administration [3]: reduction of tumor volume
